{"source": "paper PMC7265341", "about": "“Quantifying CDK inhibitor selectivity in live cells” (Nature Communications, 2020)", "key": {"[1]": {"biological_target": "CDK1/Cyclin E1 (Homo sapiens, UniProt P06493)", "sequence (P06493 whole entry)": "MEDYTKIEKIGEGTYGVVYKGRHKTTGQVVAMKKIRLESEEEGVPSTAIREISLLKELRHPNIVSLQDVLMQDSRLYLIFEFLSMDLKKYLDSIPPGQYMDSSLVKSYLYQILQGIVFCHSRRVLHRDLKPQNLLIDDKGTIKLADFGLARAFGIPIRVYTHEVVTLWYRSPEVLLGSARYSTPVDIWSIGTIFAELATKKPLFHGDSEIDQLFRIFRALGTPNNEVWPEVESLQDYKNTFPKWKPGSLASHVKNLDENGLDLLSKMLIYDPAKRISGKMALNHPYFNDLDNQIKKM", "sequence (P24864 whole entry partner)": "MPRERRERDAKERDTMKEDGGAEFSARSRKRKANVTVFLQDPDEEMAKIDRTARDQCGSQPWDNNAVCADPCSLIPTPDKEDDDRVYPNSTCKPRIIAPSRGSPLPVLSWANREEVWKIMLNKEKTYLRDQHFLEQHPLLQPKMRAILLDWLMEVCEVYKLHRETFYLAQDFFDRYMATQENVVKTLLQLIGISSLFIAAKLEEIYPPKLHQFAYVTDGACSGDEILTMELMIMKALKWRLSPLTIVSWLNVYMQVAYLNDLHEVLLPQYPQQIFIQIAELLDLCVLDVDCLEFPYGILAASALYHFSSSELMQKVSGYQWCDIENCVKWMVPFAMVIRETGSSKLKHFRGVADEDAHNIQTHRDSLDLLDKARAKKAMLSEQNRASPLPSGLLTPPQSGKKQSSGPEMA", "assay": "NanoBRET live-cell target engagement, CDK1-NanoLuc/Cyclin E1 in HEK-293", "assay_type": "binding", "details": "CDK1/E1, 10µM"}, "[2]": {"biological_target": "CDK2/Cyclin E1 (Homo sapiens, UniProt P24941)", "assay": "NanoBRET live-cell target engagement, CDK2-NanoLuc/Cyclin E1 in HEK-293", "assay_type": "binding", "details": "CDK2/E1, 10µM"}, "[3]": {"biological_target": "CDK3/Cyclin E1 (Homo sapiens, UniProt Q00526)", "assay": "NanoBRET live-cell target engagement, CDK3-NanoLuc/Cyclin E1 in HEK-293", "assay_type": "binding", "details": "CDK3/E1, 10µM"}, "[4]": {"biological_target": "CDK4/Cyclin D1 (Homo sapiens, UniProt P11802)", "assay": "NanoBRET live-cell target engagement, NanoLuc-CDK4/Cyclin D1 in HEK-293", "assay_type": "binding", "details": "CDK4/D1, 10µM"}, "[5]": {"biological_target": "CDK5/CDK5R1 (Homo sapiens, UniProt Q00535)", "assay": "NanoBRET live-cell target engagement, CDK5-NanoLuc/CDK5R1 in HEK-293", "assay_type": "binding", "details": "CDK5/CDK5R1, 10µM"}, "[6]": {"biological_target": "CDK6/Cyclin D1 (Homo sapiens, UniProt Q00534)", "assay": "NanoBRET live-cell target engagement, NanoLuc-CDK6/Cyclin D1 in HEK-293", "assay_type": "binding", "details": "CDK6/D1, 10µM"}, "[7]": {"biological_target": "CDK7 (Homo sapiens, UniProt P50613)", "assay": "NanoBRET live-cell target engagement, NanoLuc-CDK7 in HEK-293", "assay_type": "binding", "details": "CDK7, 10µM"}, "[8]": {"biological_target": "CDK8/Cyclin C (Homo sapiens, UniProt P49336)", "assay": "NanoBRET live-cell target engagement, NanoLuc-CDK8/Cyclin C in HEK-293", "assay_type": "binding", "details": "CDK8/C, 10µM"}, "[9]": {"biological_target": "CDK9/Cyclin K (Homo sapiens, UniProt P50750)", "sequence (P50750 whole entry)": "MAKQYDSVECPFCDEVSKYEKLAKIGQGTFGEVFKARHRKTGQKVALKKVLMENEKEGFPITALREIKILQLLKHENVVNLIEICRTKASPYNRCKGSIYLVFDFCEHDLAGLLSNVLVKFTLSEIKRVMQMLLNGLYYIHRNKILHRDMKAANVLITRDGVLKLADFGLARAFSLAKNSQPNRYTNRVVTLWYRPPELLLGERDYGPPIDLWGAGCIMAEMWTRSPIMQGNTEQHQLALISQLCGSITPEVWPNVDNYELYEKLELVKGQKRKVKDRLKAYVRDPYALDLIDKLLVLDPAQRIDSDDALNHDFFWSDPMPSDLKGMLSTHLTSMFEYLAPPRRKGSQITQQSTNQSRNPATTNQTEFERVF", "sequence (O75909 whole entry partner)": "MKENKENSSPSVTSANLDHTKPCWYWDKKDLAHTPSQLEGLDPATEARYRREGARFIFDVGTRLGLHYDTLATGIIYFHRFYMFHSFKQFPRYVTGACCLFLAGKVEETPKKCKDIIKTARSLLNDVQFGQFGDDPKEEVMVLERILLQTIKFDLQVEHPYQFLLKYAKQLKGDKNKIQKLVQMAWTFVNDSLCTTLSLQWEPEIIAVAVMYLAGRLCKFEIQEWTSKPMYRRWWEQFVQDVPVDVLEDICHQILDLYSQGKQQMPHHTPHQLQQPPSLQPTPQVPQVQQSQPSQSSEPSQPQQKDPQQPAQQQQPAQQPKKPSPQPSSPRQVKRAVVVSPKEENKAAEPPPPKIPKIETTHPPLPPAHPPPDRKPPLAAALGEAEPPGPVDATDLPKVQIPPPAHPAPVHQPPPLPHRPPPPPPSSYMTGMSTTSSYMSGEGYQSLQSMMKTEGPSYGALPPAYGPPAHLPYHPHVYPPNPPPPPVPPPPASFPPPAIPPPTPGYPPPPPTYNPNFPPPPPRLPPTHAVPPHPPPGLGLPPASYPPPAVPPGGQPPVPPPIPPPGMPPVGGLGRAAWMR", "assay": "NanoBRET live-cell target engagement, NanoLuc-CDK9/Cyclin K in HEK-293", "assay_type": "binding", "details": "CDK9/K, 10µM"}, "[10]": {"biological_target": "T1, CDK11A/Cyclin L2 (Homo sapiens, UniProt Q9UQ88)", "T1 sequence (Q9UQ88 1-783)": "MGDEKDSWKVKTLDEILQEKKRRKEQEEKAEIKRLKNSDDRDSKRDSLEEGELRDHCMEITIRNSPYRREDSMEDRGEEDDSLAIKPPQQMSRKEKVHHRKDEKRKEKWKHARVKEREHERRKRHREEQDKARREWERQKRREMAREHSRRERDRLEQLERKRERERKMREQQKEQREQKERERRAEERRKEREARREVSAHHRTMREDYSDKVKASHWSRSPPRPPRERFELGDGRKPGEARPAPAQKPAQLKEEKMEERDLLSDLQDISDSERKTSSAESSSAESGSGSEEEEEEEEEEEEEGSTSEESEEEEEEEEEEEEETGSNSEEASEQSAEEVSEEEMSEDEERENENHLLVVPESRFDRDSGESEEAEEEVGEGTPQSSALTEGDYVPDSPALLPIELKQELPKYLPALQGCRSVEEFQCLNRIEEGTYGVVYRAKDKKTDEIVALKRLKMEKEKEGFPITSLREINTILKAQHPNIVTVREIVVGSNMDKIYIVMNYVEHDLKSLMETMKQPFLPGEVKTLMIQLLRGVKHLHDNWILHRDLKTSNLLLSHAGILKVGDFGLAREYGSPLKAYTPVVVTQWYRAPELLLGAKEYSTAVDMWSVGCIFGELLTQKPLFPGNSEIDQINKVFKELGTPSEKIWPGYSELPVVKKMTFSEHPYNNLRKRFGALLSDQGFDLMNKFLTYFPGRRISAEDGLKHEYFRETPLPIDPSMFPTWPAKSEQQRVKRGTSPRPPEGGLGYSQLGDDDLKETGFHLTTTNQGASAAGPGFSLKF", "assay": "NanoBRET live-cell target engagement, CDK11A-NanoLuc/Cyclin L2 in HEK-293", "assay_type": "binding", "details": "CDK11a/L2, 10µM"}, "[11]": {"biological_target": "CDK11B/Cyclin L2 (Homo sapiens, UniProt P21127)", "sequence (P21127 1-782 isoform P21127-2)": "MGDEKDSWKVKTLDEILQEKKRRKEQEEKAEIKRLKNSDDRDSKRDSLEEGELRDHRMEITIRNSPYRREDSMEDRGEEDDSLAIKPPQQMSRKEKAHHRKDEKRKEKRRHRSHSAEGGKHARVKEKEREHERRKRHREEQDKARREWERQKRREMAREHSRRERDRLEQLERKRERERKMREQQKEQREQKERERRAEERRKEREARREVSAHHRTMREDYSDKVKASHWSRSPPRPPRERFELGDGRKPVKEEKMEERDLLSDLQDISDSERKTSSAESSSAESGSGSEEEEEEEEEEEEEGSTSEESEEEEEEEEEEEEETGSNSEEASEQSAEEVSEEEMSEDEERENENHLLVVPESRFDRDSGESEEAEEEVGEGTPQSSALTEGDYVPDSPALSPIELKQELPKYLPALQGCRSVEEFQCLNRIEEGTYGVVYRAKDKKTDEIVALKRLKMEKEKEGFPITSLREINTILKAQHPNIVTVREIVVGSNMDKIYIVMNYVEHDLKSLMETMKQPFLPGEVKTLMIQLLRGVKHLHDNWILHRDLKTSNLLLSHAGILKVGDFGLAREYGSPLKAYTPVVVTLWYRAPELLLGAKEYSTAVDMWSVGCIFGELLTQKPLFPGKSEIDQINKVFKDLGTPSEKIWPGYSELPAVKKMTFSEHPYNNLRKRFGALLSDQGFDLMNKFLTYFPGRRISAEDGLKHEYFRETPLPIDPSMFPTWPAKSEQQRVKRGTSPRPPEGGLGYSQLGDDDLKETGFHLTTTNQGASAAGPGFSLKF", "assay": "NanoBRET live-cell target engagement, CDK11B-NanoLuc/Cyclin L2 in HEK-293", "assay_type": "binding", "details": "CDK11b/L2, 10µM"}, "[12]": {"biological_target": "CDK12/Cyclin K (Homo sapiens, UniProt Q9NYV4)", "sequence (Q9NYV4 1-1481 isoform Q9NYV4-2)": "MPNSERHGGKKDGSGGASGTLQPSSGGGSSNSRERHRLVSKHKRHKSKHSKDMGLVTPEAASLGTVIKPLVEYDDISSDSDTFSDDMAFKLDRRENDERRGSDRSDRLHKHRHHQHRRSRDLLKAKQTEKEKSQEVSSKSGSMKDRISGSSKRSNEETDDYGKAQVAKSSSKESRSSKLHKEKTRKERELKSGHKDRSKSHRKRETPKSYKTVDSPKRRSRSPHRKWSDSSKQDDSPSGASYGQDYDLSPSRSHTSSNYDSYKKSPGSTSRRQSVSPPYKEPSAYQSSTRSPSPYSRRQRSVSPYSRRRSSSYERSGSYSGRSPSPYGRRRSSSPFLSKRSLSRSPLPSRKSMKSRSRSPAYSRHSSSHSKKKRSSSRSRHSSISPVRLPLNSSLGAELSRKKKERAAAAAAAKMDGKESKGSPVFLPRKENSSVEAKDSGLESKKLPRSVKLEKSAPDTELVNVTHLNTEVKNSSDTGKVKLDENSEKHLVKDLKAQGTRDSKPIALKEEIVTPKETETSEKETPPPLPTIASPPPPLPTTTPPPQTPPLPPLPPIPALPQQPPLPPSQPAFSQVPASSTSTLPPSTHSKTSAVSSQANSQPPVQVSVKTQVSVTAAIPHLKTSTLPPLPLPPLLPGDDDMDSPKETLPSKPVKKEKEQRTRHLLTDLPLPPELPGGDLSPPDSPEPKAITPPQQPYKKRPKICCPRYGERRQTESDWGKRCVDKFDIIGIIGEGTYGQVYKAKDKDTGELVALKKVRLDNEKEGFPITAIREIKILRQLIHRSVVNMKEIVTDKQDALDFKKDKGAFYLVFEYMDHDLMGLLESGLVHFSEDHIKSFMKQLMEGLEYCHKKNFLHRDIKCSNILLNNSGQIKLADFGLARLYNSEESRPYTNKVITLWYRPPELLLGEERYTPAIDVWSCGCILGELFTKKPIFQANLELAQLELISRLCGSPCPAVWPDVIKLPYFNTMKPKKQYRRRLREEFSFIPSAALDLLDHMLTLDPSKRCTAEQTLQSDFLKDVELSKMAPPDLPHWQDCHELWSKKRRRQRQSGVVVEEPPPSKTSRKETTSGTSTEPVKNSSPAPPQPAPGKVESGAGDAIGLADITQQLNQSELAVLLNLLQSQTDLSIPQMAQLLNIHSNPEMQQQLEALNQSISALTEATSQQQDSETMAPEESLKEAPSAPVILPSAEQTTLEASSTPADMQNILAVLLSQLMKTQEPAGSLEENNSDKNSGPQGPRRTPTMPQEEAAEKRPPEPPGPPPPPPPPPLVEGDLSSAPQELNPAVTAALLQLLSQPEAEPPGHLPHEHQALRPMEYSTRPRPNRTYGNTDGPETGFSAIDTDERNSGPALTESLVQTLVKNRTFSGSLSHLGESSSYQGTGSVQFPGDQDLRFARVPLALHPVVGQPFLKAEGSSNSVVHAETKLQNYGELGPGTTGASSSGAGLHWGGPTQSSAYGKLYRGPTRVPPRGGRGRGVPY", "sequence (O75909 whole entry partner)": "as the sequence (O75909 whole entry partner) above", "assay": "NanoBRET live-cell target engagement, CDK12-NanoLuc/Cyclin K in HEK-293", "assay_type": "binding", "details": "10µM"}, "[13]": {"biological_target": "CDK13/Cyclin K (Homo sapiens, UniProt Q14004)", "assay": "NanoBRET live-cell target engagement, CDK13-NanoLuc/Cyclin K in HEK-293", "assay_type": "binding", "details": "CDK13/K, 10µM"}, "[14]": {"biological_target": "CDK15/Cyclin Y (Homo sapiens, UniProt Q96Q40)", "assay": "NanoBRET live-cell target engagement, NanoLuc-CDK15/Cyclin Y in HEK-293", "assay_type": "binding", "details": "CDK15/Y, 10µM"}, "[15]": {"biological_target": "CDK16/Cyclin Y (Homo sapiens, UniProt Q00536)", "assay": "NanoBRET live-cell target engagement, CDK16-NanoLuc/Cyclin Y in HEK-293", "assay_type": "binding", "details": "CDK16/Y, 10µM"}, "[16]": {"biological_target": "CDK17/Cyclin Y (Homo sapiens, UniProt Q00537)", "sequence (Q00537 whole entry)": "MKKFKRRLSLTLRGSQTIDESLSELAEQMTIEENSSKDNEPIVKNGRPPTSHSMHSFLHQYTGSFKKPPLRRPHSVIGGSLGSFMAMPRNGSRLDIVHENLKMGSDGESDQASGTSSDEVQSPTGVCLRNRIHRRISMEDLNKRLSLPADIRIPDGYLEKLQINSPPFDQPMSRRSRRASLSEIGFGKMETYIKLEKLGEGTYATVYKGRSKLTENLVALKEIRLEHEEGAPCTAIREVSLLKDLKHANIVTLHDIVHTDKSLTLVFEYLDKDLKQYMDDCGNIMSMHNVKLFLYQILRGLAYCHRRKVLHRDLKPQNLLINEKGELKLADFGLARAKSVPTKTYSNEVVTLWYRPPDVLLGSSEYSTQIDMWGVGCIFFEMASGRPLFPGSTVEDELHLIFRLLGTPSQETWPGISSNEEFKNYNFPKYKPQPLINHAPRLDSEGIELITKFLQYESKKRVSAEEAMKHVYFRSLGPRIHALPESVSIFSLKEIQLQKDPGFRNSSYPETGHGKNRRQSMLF", "sequence (Q8ND76 whole entry partner)": "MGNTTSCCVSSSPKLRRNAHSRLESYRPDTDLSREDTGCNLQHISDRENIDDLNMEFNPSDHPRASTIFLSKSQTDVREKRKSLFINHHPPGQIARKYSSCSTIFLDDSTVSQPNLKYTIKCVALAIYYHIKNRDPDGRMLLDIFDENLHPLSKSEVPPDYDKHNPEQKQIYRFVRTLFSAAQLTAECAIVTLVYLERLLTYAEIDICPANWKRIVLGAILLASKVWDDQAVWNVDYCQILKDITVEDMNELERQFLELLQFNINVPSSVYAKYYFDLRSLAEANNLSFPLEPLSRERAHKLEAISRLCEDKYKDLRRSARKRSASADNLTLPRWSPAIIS", "assay": "NanoBRET live-cell target engagement, CDK17-NanoLuc/Cyclin Y in HEK-293", "assay_type": "binding", "details": "CDK17/Y, 10µM"}, "[17]": {"biological_target": "CDK18/Cyclin Y (Homo sapiens, UniProt Q07002)", "assay": "NanoBRET live-cell target engagement, CDK18-NanoLuc/Cyclin Y in HEK-293", "assay_type": "binding", "details": "CDK18/Y, 10µM"}, "[18]": {"biological_target": "CDK20/Cyclin H (Homo sapiens, UniProt Q8IZL9)", "assay": "NanoBRET live-cell target engagement, NanoLuc-CDK20/Cyclin H in HEK-293", "assay_type": "binding", "details": "10µM"}, "[19]": {"biological_target": "CDK19/Cyclin C (Homo sapiens, UniProt Q9BWU1)", "assay": "NanoBRET live-cell target engagement, NanoLuc-CDK19/Cyclin C in HEK-293", "details": "10µM"}, "[20]": {"details": "average of replicates, read-out: Inhibition at 10µM (%) Average"}, "[21]": {"details": "read-out: Inhibition at 10µM (%) Replicate 1"}, "[22]": {"details": "read-out: Inhibition at 10µM (%) Replicate 2"}}, "note": "Where two headings read alike, the source gives them in different places."}
{"smiles": "COc1cc(F)ccc1-c1ncnc(Nc2cccc(C[S@](C)(=N)=O)c2)n1", "note": "[Atuveciclib]", "values": [{"measurement": "inhibition at 10 µM", "setting": "[1]; [20]", "result": 16.6, "unit": "%"}, {"measurement": "inhibition at 10 µM", "setting": "[1]; [21]", "result": 19.4, "unit": "%"}, {"measurement": "inhibition at 10 µM", "setting": "[1]; [22]", "result": 13.8, "unit": "%"}, {"measurement": "inhibition at 10 µM", "setting": "[2]; [20]", "result": 41.7, "unit": "%"}, {"measurement": "inhibition at 10 µM", "setting": "[2]; [21]", "result": 42.9, "unit": "%"}, {"measurement": "inhibition at 10 µM", "setting": "[2]; [22]", "result": 40.5, "unit": "%"}, {"measurement": "inhibition at 10 µM", "setting": "[3]; [20]", "result": 48.4, "unit": "%"}, {"measurement": "inhibition at 10 µM", "setting": "[3]; [21]", "result": 47.3, "unit": "%"}, {"measurement": "inhibition at 10 µM", "setting": "[3]; [22]", "result": 49.6, "unit": "%"}, {"measurement": "inhibition at 10 µM", "setting": "[4]; [20]", "result": 31.5, "unit": "%"}, {"measurement": "inhibition at 10 µM", "setting": "[4]; [21]", "result": 53.7, "unit": "%"}, {"measurement": "inhibition at 10 µM", "setting": "[4]; [22]", "result": 9.3, "unit": "%"}, {"measurement": "inhibition at 10 µM", "setting": "[5]; [20]", "result": 26.1, "unit": "%"}, {"measurement": "inhibition at 10 µM", "setting": "[5]; [21]", "result": 23.9, "unit": "%"}, {"measurement": "inhibition at 10 µM", "setting": "[5]; [22]", "result": 28.3, "unit": "%"}, {"measurement": "inhibition at 10 µM", "setting": "[6]; [20]", "result": 64.1, "unit": "%"}, {"measurement": "inhibition at 10 µM", "setting": "[6]; [21]", "result": 61.7, "unit": "%"}, {"measurement": "inhibition at 10 µM", "setting": "[6]; [22]", "result": 66.4, "unit": "%"}, {"measurement": "inhibition at 10 µM", "setting": "[7]; [20]", "result": 16.8, "unit": "%"}, {"measurement": "inhibition at 10 µM", "setting": "[7]; [21]", "result": 22, "unit": "%"}, {"measurement": "inhibition at 10 µM", "setting": "[7]; [22]", "result": 11.6, "unit": "%"}, {"measurement": "inhibition at 10 µM", "setting": "[8]; [20]", "result": 3, "unit": "%"}, {"measurement": "inhibition at 10 µM", "setting": "[8]; [21]", "result": -1, "unit": "%"}, {"measurement": "inhibition at 10 µM", "setting": "[8]; [22]", "result": 7, "unit": "%"}, {"measurement": "inhibition at 10 µM", "setting": "[9]; [20]", "result": 97.9, "unit": "%"}, {"measurement": "inhibition at 10 µM", "setting": "[9]; [21]", "result": 98.1, "unit": "%"}, {"measurement": "inhibition at 10 µM", "setting": "[9]; [22]", "result": 97.6, "unit": "%"}, {"measurement": "inhibition at 10 µM", "setting": "[10]; [20]", "result": 10, "unit": "%"}, {"measurement": "inhibition at 10 µM", "setting": "[10]; [21]", "result": 12.3, "unit": "%"}, {"measurement": "inhibition at 10 µM", "setting": "[10]; [22]", "result": 7.6, "unit": "%"}, {"measurement": "inhibition at 10 µM", "setting": "[11]; [20]", "result": 7.4, "unit": "%"}, {"measurement": "inhibition at 10 µM", "setting": "[11]; [21]", "result": 11.9, "unit": "%"}, {"measurement": "inhibition at 10 µM", "setting": "[11]; [22]", "result": 2.9, "unit": "%"}, {"measurement": "inhibition at 10 µM", "setting": "[12]; read-out: Inhibition at 10µM (%) Average, CDK12/K, average of replicates", "result": 8.2, "unit": "%"}, {"measurement": "inhibition at 10 µM", "setting": "[12]; read-out: Inhibition at 10µM (%) Replicate 1, CDK12/K", "result": 3, "unit": "%"}, {"measurement": "inhibition at 10 µM", "setting": "[12]; read-out: Inhibition at 10µM (%) Replicate 2, CDK12/K", "result": 13.3, "unit": "%"}, {"measurement": "inhibition at 10 µM", "setting": "[13]; [20]", "result": 4.8, "unit": "%"}, {"measurement": "inhibition at 10 µM", "setting": "[13]; [21]", "result": 8, "unit": "%"}, {"measurement": "inhibition at 10 µM", "setting": "[13]; [22]", "result": 1.6, "unit": "%"}, {"measurement": "inhibition at 10 µM", "setting": "[14]; [20]", "result": 4.5, "unit": "%"}, {"measurement": "inhibition at 10 µM", "setting": "[14]; [21]", "result": 2, "unit": "%"}, {"measurement": "inhibition at 10 µM", "setting": "[14]; [22]", "result": 7.1, "unit": "%"}, {"measurement": "inhibition at 10 µM", "setting": "[15]; [21]", "result": 39.3, "unit": "%"}, {"measurement": "inhibition at 10 µM", "setting": "[15]; [22]", "result": 37.9, "unit": "%"}, {"measurement": "inhibition at 10 µM", "setting": "[16]; [20]", "result": 31, "unit": "%"}, {"measurement": "inhibition at 10 µM", "setting": "[16]; [21]", "result": 30.9, "unit": "%"}, {"measurement": "inhibition at 10 µM", "setting": "[16]; [22]", "result": 31.1, "unit": "%"}, {"measurement": "inhibition at 10 µM", "setting": "[17]; [20]", "result": 19.9, "unit": "%"}, {"measurement": "inhibition at 10 µM", "setting": "[17]; [21]", "result": 17.3, "unit": "%"}, {"measurement": "inhibition at 10 µM", "setting": "[17]; [22]", "result": 22.4, "unit": "%"}, {"measurement": "inhibition at 10 µM", "setting": "[18]; read-out: Inhibition at 10µM (%) Replicate 1, CDK20/H", "result": 1.3, "unit": "%"}, {"measurement": "inhibition at 10 µM", "setting": "[18]; read-out: Inhibition at 10µM (%) Replicate 2, CDK20/H", "result": 1.3, "unit": "%"}, {"measurement": "inhibition at 10 µM", "setting": "[19]; read-out: Inhibition at 10µM (%) Average, CDK19/C, average of replicates", "result": 11.1, "unit": "%"}, {"measurement": "inhibition at 10 µM", "setting": "[19]; read-out: Inhibition at 10µM (%) Replicate 1, CDK19/C", "result": 12.3, "unit": "%"}, {"measurement": "inhibition at 10 µM", "setting": "[19]; read-out: Inhibition at 10µM (%) Replicate 2, CDK19/C", "result": 9.9, "unit": "%"}]}
